# What was measured:
# Assay in all cases: qRT-PCR expression of induced resistance gene in pine tree callus
# Assay type in all cases: cell-based
# [1] = system: Antipeptide; settings: 200 µg/mℓ; for Expression of induced resistance gene, Antipeptide: 24 hours
# Method: (§1) For in vitro analysis of induced resistance, the expression of PR genes and other plant defense-related genes was determined, which are evolved in various defense mechanisms including induced resistance. The primers of sixteen induced resistance-related genes of pine tree used in this invention were listed in the below and elongation factor_1 alpha were used as a reference gene. [Table 4] The primer list of defense resistance-related genes
# (§2) After the treatment with 200 µg / mℓ of candidates of the selected induced resistance material, expression of the induced resistance-related gene in pine callus was determined by qRT-PCR using the primer pairs of defense resistance-related genes in Table 4. As a candidate group of an induced resistance material in pine tree, acibenzolar-S-methyl (ASM), TDL (Tiadinil), ITL (Isotianil), PBZ (Probenzole), AZO (Azoxystrobin), VMA (Validamycin A), MeJA (Methyl jasmonate), BABA (DL-3-aminobutyric acid), 2,3-BDO (2,3-Butanediol), GABA (r-Aminobutyric acid), glucan (Glucan), ER (Ergosterol), and AZA (Azelaic acid) were used. For the in vitro analysis of the expression of induced resistance gene in pine callus, the selected induced resistance materials were applied with 500 µℓ of LM liquid medium on a surface of pine tree callus (100 mg) in 12-well microplate to give final concentration of 200 µg/mℓ. Then, the callus surface was sufficiently reacted for 24 hours with the candidate of pine tree induced resistance material by shaking at 50 rpm in a 25 °C shaking incubator under dark condition. RNAs were extracted from the callus after completion of the reaction with an induced resistance material, followed by synthesis of cDNAs. Then, by carrying out qRT-PCR, the expression of induced resistance genes was determined. [Table 5] Expression of induced resistance gene in pine tree callus by TDL, PBZ, ASM, ITL, AZO, VMA, glucan, and AZA
# (§3) Based on the results of assay using young plants and gene expression by selected induce resistance materials, it seemed that acibenzolar-S-methyl had the most excellent effect. Thus, the following tests were carried out using acibenzolar-S-methyl only. Expression of the induced resistance genes at different culture time after the chemical treatment was examined. For the in vitro assay, LM medium containing pine tree callus was treated with acibenzolar-S-methyl at concentration of 200 µg / mℓ, followed by reaction for 1 day, 7 days, or 14 days in a 25°C shaking incubator under dark condition. RNAs were extracted from the callus after the reaction followed by synthesis of cDNAs. Then, by carrying out qRT-PCR, the expression of the induced resistance genes was determined. Depending on reaction time after the treatment, i.e., after 1 day, 7 days, or 14 days, the expression of the obtained induced resistance genes was examined. As a result of the in vitro callus assay depending on reaction time after the treatment with acibenzolar-S-methyl, the expression of the induced resistance-related genes is the highest at 1 day after the treatment with acibenzolar-S-methyl and gradually diminished over time, as it is shown in Table 7. In this regard, it is contemplated that the expression of genes acquired by acibenzolar-S-methyl is not maintained in highly expressed state until the pathogen invasion and just memorized with at minimum level so that the energy consumption by plant can be efficiently managed. [Table 7] Expression of induced resistance gene in pine tree callus by acibenzolar-S-methyl depending on reaction time
# (§4) To have an in vitro assay according to different methods of treatment with acibenzolar-S-methyl, two separate treatment methods, i.e., surface treatment (spraying treatment) of pine tree callus and direct application of the induced resistance material to an LM medium containing pine tree callus, were performed. […]
# [2] = system: Extensin; settings: for Expression of induced resistance gene, Extensin: 24 hours
# Method: as §1, §2, §3, §4
# [3] = system: Heat shock 70; settings: for Expression of induced resistance gene, Heat shock 70: 24 hours
# Method: as §1, §2, §3, §4
# [4] = system: Hydroxyproline; settings: for Expression of induced resistance gene, Hydroxyproline: 24 hours
# Method: as §1, §2, §3, §4
# [5] = system: Metallothionein; settings: for Expression of induced resistance gene, Metallothionein: 24 hours
# Method: as §1, §2, §3, §4
# [6] = system: PR_10 family; settings: for Expression of induced resistance gene, PR_10 family: 24 hours
# Method: as §1, §2, §3, §4
# [7] = system: PR_1b family; settings: 200 µg/mℓ; for Expression of induced resistance gene, PR_1b family: 24 hours
# Method: as §1, §2, §3, §4
# [8] = Direct supplying as a medium component
# [9] = 200 µg/mℓ, Direct supplying as a medium component
# [10] = concentration series, 200 µg/mℓ
compound,measurement,setting,value
"CSC(=O)c1cccc2nnsc12 [ASM, acibenzolar-S-methyl]","Expression of induced resistance gene, Antipeptide",[1],1.83
same,"Expression of induced resistance gene, Antipeptide",[1]; [8],7.21
same,"Expression of induced resistance gene, Antipeptide",[1]; Spraying,1.83
same,"Gene expression level, Antipeptide",[1]; After 1 day,10.63
same,"Gene expression level, Antipeptide",[1]; After 7 days,1.28
same,"Gene expression level, Antipeptide",[1]; After 14 days,0.58
same,"Gene expression level, Antipeptide",[1]; concentration series,5.352
same,"Expression of induced resistance gene, Extensin",[2]; 200 µg/mℓ,2.1
same,"Expression of induced resistance gene, Extensin",[2]; [9],2.27
same,"Expression of induced resistance gene, Extensin","[2]; 200 µg/mℓ, Spraying",2.1
same,"Gene expression level, Extensin","[2]; 200 µg/mℓ, After 1 day",9.99
same,"Gene expression level, Extensin","[2]; 200 µg/mℓ, After 7 days",1.23
same,"Gene expression level, Extensin","[2]; 200 µg/mℓ, After 14 days",0.33
same,"Gene expression level, Extensin","[2]; concentration series, 2 µg/mℓ",0.9012
same,"Gene expression level, Extensin","[2]; concentration series, 20 µg/mℓ",1.385
same,"Gene expression level, Extensin",[2]; [10],1.693
same,"Expression of induced resistance gene, Heat shock 70",[3]; 200 µg/mℓ,1.75
same,"Expression of induced resistance gene, Heat shock 70",[3]; [9],10.06
same,"Expression of induced resistance gene, Heat shock 70","[3]; 200 µg/mℓ, Spraying",1.75
same,"Gene expression level, Heat shock 70","[3]; 200 µg/mℓ, After 1 day",2.27
same,"Gene expression level, Heat shock 70","[3]; 200 µg/mℓ, After 7 days",0.97
same,"Gene expression level, Heat shock 70","[3]; 200 µg/mℓ, After 14 days",0.77
same,"Gene expression level, Heat shock 70","[3]; concentration series, 20 µg/mℓ",23.26
same,"Gene expression level, Heat shock 70",[3]; [10],53.45
same,"Expression of induced resistance gene, Hydroxyproline",[4]; 200 µg/mℓ,1.79
same,"Expression of induced resistance gene, Hydroxyproline",[4]; [9],7.89
same,"Expression of induced resistance gene, Hydroxyproline","[4]; 200 µg/mℓ, Spraying",1.79
same,"Gene expression level, Hydroxyproline","[4]; 200 µg/mℓ, After 1 day",10.06
same,"Gene expression level, Hydroxyproline","[4]; 200 µg/mℓ, After 7 days",1.2
same,"Gene expression level, Hydroxyproline","[4]; 200 µg/mℓ, After 14 days",0.32
same,"Gene expression level, Hydroxyproline","[4]; concentration series, 2 µg/mℓ",3.138
same,"Gene expression level, Hydroxyproline","[4]; concentration series, 20 µg/mℓ",4.438
same,"Gene expression level, Hydroxyproline",[4]; [10],4.627
same,"Expression of induced resistance gene, Metallothionein",[5]; 200 µg/mℓ,0.11
same,"Expression of induced resistance gene, Metallothionein",[5]; [9],29.86
same,"Expression of induced resistance gene, Metallothionein","[5]; 200 µg/mℓ, Spraying",0.11
same,"Gene expression level, Metallothionein","[5]; 200 µg/mℓ, After 1 day",7.89
same,"Gene expression level, Metallothionein","[5]; 200 µg/mℓ, After 7 days",0.41
same,"Gene expression level, Metallothionein","[5]; 200 µg/mℓ, After 14 days",0.29
same,"Gene expression level, Metallothionein","[5]; concentration series, 2 µg/mℓ",0.5946
same,"Gene expression level, Metallothionein","[5]; concentration series, 20 µg/mℓ",0.79
same,"Gene expression level, Metallothionein",[5]; [10],0.9266
same,"Expression of induced resistance gene, PR_10 family",[6]; 200 µg/mℓ,1.71
same,"Expression of induced resistance gene, PR_10 family",[6]; [9],10.63
same,"Expression of induced resistance gene, PR_10 family","[6]; 200 µg/mℓ, Spraying",1.71
same,"Gene expression level, PR_10 family","[6]; 200 µg/mℓ, After 1 day",8.57
same,"Gene expression level, PR_10 family","[6]; 200 µg/mℓ, After 7 days",0.51
same,"Gene expression level, PR_10 family","[6]; 200 µg/mℓ, After 14 days",0.64
same,"Gene expression level, PR_10 family","[6]; concentration series, 2 µg/mℓ",0.8293
same,"Gene expression level, PR_10 family","[6]; concentration series, 20 µg/mℓ",1.11
same,"Gene expression level, PR_10 family",[6]; [10],1.094
same,"Expression of induced resistance gene, PR_1b family",[7],2
same,"Expression of induced resistance gene, PR_1b family",[7]; [8],6.28
same,"Expression of induced resistance gene, PR_1b family",[7]; Spraying,2
same,"Gene expression level, PR_1b family",[7]; After 1 day,6.28
same,"Gene expression level, PR_1b family",[7]; After 7 days,0.72
same,"Gene expression level, PR_1b family",[7]; After 14 days,0.4
same,"Gene expression level, PR_1b family",[7]; concentration series,0.9395

# From patent publication EP3685668B1, “COMPOSITION COMPRISING ACIBENZOLAR-S-METHYL AS EFFECTIVE INGREDIENT FOR CONTROLLING BURSAPHELENCHUS XYLOPHILUS DISEASE AND METHOD FOR CONTROLLING BURSAPHELENCHUS XYLOPHILUS USING SAME” (Industry Foundation of Chonnam National University, priority 2017, dated 2019)
